From publication PMC9944328 (Nature Communications, 2023)

Test system: SSTR2
Test: β-arrestin recruitment with co-transfection of GRK2
Assay type: cell-based, human
Details: N276(6.55)A and F294(7.35)A with GRK2 co-transfection
Protocol: In addition, we measured the function of the residues located in the core region and the common ligand binding pocket.
Human full-length β-arrestin 1 was cloned into pcDNA3.1+ vector with the large fragment (LgBiT) of the NanoBiT system and a 15-amino acid flexible linker ([sequence]) at the N-terminus. Human full-length SSTR wild-type and mutant vectors were C-terminally fused with a 15-amino acid flexible linker and the small fragment (SmBiT). HEK293 cells were seeded into six-well microplates at a density of 1.0 × 10^6 cells/well and cultured for 24 h at 37 °C with 5% CO2. After that, cells were co-transfected with pcDNA3.1+ vectors encoding SSTR wild-type or mutants and human β-arrestin 1. After transfecting for 24 h, the transfected cells were suspended and seeded into white 96-well plates, and then cultured at 37 °C overnight. After that the medium in each well was exchanged for 90 μl of 0.01% bovine serum albumin containing 20 μl of 50 μM coelenterazine h (Carbosynth) diluted in the HBSS assay buffer and incubated for 40 min at room temperature. Then, ligands diluted in the assay buffer was added to each well and the luminescence intensity was measured using the Synergy H1 microplate reader and detected at room temperature in a time period. All data presented are means of at least three independent experiments.

SMILES	β-arrestin recruitment with GRK2
C[C@@H](O)[C@@H]1NC(=O)[C@H](CCCCN)NC(=O)[C@@H](Cc2c[nH]c3ccccc23)NC(=O)[C@H](Cc2ccccc2)NC(=O)[C@@H](NC(=O)[C@H](N)Cc2ccccc2)CSSC[C@@H](C(=O)N[C@H](CO)[C@@H](C)O)NC1=O [octreotide]	nearly abolished
N#Cc1cccc(-c2ccc3ncc(-c4cc(F)cc(F)c4)c(N4CCC(N)CC4)c3c2)c1O [paltusotine]	influenced paltusotine induced β-arrestin recruitment
